The values that follow come from PubChem BioAssay (NCI).

Test systems include CAKI-1 renal; EKVX NSCLC; IGROV1 ovarian; MALME-3M melanoma; MDA-MB-231 breast; SF-539 CNS; SK-MEL-28 melanoma; HOP-92 NSCLC; NCI-H460 lung; SNB-75 CNS.
Common to all, as to assay: NCI tumour cell line growth inhibition, 48 h

SMILES strings stand for the structures. “And” between values parts separate entries of the source, which are not always exact repeats. Equal entries are not always repeated.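 How tested: cells in 96-well plates exposed to compound for 48 hours at five concentrations. Abbreviation: GI50, concentration required for 50% inhibition of growth. TGI: total growth inhibition.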 *1 amine or outer side, *2 acyl side, *3 side chain or, on linkers, in order; H or OH if unused. Where a SMILES comes first, the peptide text is derived from it. Bridges are numbered along the chain shown (N, C = ends). [ ]: non-standard residue; d: D form. ξ: configuration not given here. X4 = CCC(C)C(N[*:1])C(O)CC(=O)O[C@H](C(=O)C(C)C(=O)[*:2])C(C)C; NMeY = CN[C@@H](Cc1ccc(O)cc1)C(=O)O; ξNMeL = CNC(CC(C)C)C(=O)O; ξT = CC(O)C(N)C(=O)O

On to `O=C(c1ccco1)N(C(=S)OCc1ccccn1)c1ccccc1`, for which the TGI is above 100 µM with CAKI-1 renal; above 100 µM in the test with EKVX NSCLC; above 100 µM in the test on IGROV1 ovarian; 79.2 µM with MALME-3M melanoma; above 100 µM in the test on MDA-MB-231 breast; above 100 µM in the test on SF-539 CNS. This compound also showed a TGI in the test with SK-MEL-28 melanoma above 100 µM.
For the compound `OC1OC(c2ccco2)C(F)(F)C(F)(F)C1(F)F` (stereo not given), the TGI in the test with EKVX NSCLC, in the test with HOP-92 NSCLC, in the test on IGROV1 ovarian, in the test with MALME-3M melanoma, in the test with MDA-MB-231 breast and with NCI-H460 lung was above 100 µM each time. The TGI in the test with SF-539 CNS and with SK-MEL-28 melanoma was above 100 µM each time.
Consider `O=C(O)c1ccc(Nc2nc3cc(C(F)(F)F)ccc3nc2C(=O)O)cc1`, for which the TGI in the test with CAKI-1 renal, in the test on EKVX NSCLC, in the test with IGROV1 ovarian, in the test on MALME-3M melanoma, in the test on MDA-MB-231 breast and in the test with NCI-H460 lung was above 100 µM each time. Further, the TGI in the test with SK-MEL-28 melanoma and with SNB-75 CNS was above 100 µM throughout.
As for `COS(=O)c1cc(Cl)cc(Cl)c1O` (stereo not given), the TGI in the test with EKVX NSCLC, in the test with MALME-3M melanoma, in the test on NCI-H460 lung, in the test on SF-539 CNS, in the test with SK-MEL-28 melanoma and in the test on SNB-75 CNS was above 100 µM in each case.
For `CSc1nncc(-c2cc3c(c(SC)n2)CCC3)n1`, the TGI in the test on CAKI-1 renal was above 100 µM; with EKVX NSCLC, above 100 µM; with IGROV1 ovarian it was 10.1 µM; with MDA-MB-231 breast, above 100 µM; with SK-MEL-28 melanoma, above 100 µM; in the test with SNB-75 CNS, above 100 µM.
With `Cc1ccc(O)c(C2=NNC(c3cccc(Br)c3)C2)c1` (stereo not given), the TGI with CAKI-1 renal is above 100 µM; in the test on EKVX NSCLC, above 100 µM; in the test on HOP-92 NSCLC it was 92.7 µM; in the test on IGROV1 ovarian it was above 100 µM; in the test on MALME-3M melanoma, above 100 µM; in the test on NCI-H460 lung, above 100 µM. In addition, the TGI in the test with SF-539 CNS is above 100 µM.
Take `CCC(C)C1NC(=O)C(NC(=O)C(CC(C)C)N(C)C(=O)[C@@H]2CCCN2)C(C)OC(=O)[C@H](Cc2ccc(OC)cc2)N(C)C(=O)[C@@H]2CCCN2C(=O)[C@H](CC(C)C)NC(=O)C(C)C(=O)[C@H](C(C)C)OC(=O)CC1O` (stereo not given in full) (H-P[ξNMeL][ξT][X4]LP[NMeY](Me); ester 3-C): the TGI with CAKI-1 renal is 0.364 µM and 0.13 µM; in the test on EKVX NSCLC it was 0.0474 µM; with HOP-92 NSCLC, 0.0187 µM; with IGROV1 ovarian it was 0.0107 µM; in the test on MALME-3M melanoma, 0.00847 µM; in the test on SF-539 CNS it was 0.00208 µM. The TGI in the test on SK-MEL-28 melanoma is 0.00179 µM; in the test with SNB-75 CNS, 0.00813 µM and 0.0191 µM.
With `Cc1cc(S(=O)(=O)Nc2nc(N)nc(N3N=CCC3C)n2)c(S)cc1Cl` (stereo not given), the TGI in the test with CAKI-1 renal, with EKVX NSCLC, with HOP-92 NSCLC, in the test on IGROV1 ovarian, with MALME-3M melanoma and with NCI-H460 lung was above 10 µM throughout. The TGI in the test on SF-539 CNS, in the test on SK-MEL-28 melanoma and in the test with SNB-75 CNS was above 10 µM in each case.
Turning to `CSC1SCC2C(=O)N(C)C3(CC3C)C(=O)OCC(NC(=O)c3nc4ccccc4cc3O)C(=O)NC(C)C(=O)N(C)C1C(=O)N(C)C1(CC1C)C(=O)OCC(NC(=O)c1nc3ccccc3cc1O)C(=O)NC(C)C(=O)N2C` (stereo not given), the TGI in the test with CAKI-1 renal was 0.0135 µM; with EKVX NSCLC, 0.648 µM and 0.0992 µM; in the test with HOP-92 NSCLC, below 0.0001 µM; in the test with IGROV1 ovarian, 0.281 µM; in the test with NCI-H460 lung, 0.875 µM; with SF-539 CNS it was below 0.0001 µM. The TGI in the test with SK-MEL-28 melanoma and in the test with SNB-75 CNS was below 0.0001 µM in each case.
For the compound `O=C(NCCNCCO)N/N=C/c1ccc(Cl)cc1`, the TGI in the test with CAKI-1 renal, in the test on IGROV1 ovarian, in the test on MALME-3M melanoma, in the test with MDA-MB-231 breast, in the test on NCI-H460 lung and with SF-539 CNS was above 100 µM throughout. Further, the TGI in the test with SK-MEL-28 melanoma and in the test with SNB-75 CNS was above 100 µM in each case.
With `COc1cc(C2C3=C(COC3=O)OC(C)(C)Oc3cc4c(cc32)OCO4)cc(OC)c1OC` (stereo not given), the TGI with CAKI-1 renal, in the test with EKVX NSCLC, in the test with HOP-92 NSCLC, in the test on IGROV1 ovarian, in the test with MALME-3M melanoma and with MDA-MB-231 breast was above 100 µM each time. In addition, the figures for the TGI in the test on NCI-H460 lung, with SF-539 CNS and in the test with SK-MEL-28 melanoma were above 100 µM, 0.582 µM and above 100 µM, respectively.
Consider `N#Cc1c2c(c(N3CCOCC3)n3c1nc1ccccc13)CCCC2`, for which the TGI amounted to 37.9 µM with CAKI-1 renal; 35.9 µM in the test with EKVX NSCLC; 38.8 µM in the test with HOP-92 NSCLC; 34.9 µM in the test on IGROV1 ovarian; 34 µM with MALME-3M melanoma; 54.7 µM in the test on MDA-MB-231 breast. Also, the TGI with NCI-H460 lung was 56.4 µM; in the test with SF-539 CNS, 39.3 µM; with SK-MEL-28 melanoma, 49.3 µM.
As to `COC(=O)C1(C(=O)OC)N=C(C)OC1C(C)C` (stereo not given), the TGI in the test with CAKI-1 renal, with EKVX NSCLC, in the test with HOP-92 NSCLC, with NCI-H460 lung, in the test with SK-MEL-28 melanoma and in the test on SNB-75 CNS was above 100 µM each time.
On to `COc1c/c(=C2/C=c3ccccc3=N2)[nH]/c1=C/c1[nH]c(C)cc1C`, for which the GI50 with CAKI-1 renal is 0.0346 µM; in the test with IGROV1 ovarian, 0.0724 µM; in the test on MALME-3M melanoma, 0.277 µM; in the test on SNB-75 CNS, 0.108 µM. Also, the TGI was 1.2 µM in the test on CAKI-1 renal, above 100 µM in the test on IGROV1 ovarian, 1.62 µM in the test with MALME-3M melanoma and above 100 µM with SNB-75 CNS.
Consider `O=C(N=Nc1ccccc1Br)NNc1ccccc1Br`, for which the TGI with CAKI-1 renal, in the test with IGROV1 ovarian, in the test with MALME-3M melanoma, in the test on MDA-MB-231 breast, in the test with NCI-H460 lung and in the test with SK-MEL-28 melanoma was above 100 µM throughout. In the test on SNB-75 CNS, this compound yielded a TGI above 100 µM.
For `O=C1[C@@H]2Cc3c([nH]c4ccccc34)C(C3CCCCC3)N2C(=O)[C@@H]2CCCN12` (stereo not given in full), the TGI is 80.8 µM with CAKI-1 renal; above 100 µM in the test with EKVX NSCLC; 76.6 µM in the test with HOP-92 NSCLC; above 100 µM in the test on IGROV1 ovarian; 51.1 µM in the test on MALME-3M melanoma; 50.2 µM in the test on MDA-MB-231 breast. The same compound came in with a TGI in the test on SK-MEL-28 melanoma above 100 µM.
On to `COc1cc(/C=C2/SC(c3ccccc3)N(c3cccc([N+](=O)[O-])c3)C2=O)cc(OC)c1OC` (stereo not given), for which the TGI with CAKI-1 renal, in the test on EKVX NSCLC, with HOP-92 NSCLC, in the test on MALME-3M melanoma, with MDA-MB-231 breast and in the test on NCI-H460 lung was above 100 µM in each case. Also, the TGI with SF-539 CNS and in the test with SK-MEL-28 melanoma was above 100 µM in each case.
Turning to `CCCCCCCCCCCCCCCCNc1nc(=O)n(C2CC(O)C(CO)O2)cc1F` (stereo not given), the TGI in the test with CAKI-1 renal was found to be 23.3 µM; in the test on EKVX NSCLC it was 30.9 µM; with HOP-92 NSCLC, 25.1 µM; in the test with IGROV1 ovarian, 27.6 µM; with MALME-3M melanoma, 22.8 µM; in the test with MDA-MB-231 breast it was 43.3 µM. The TGI in the test on NCI-H460 lung worked out at 27.3 µM; with SF-539 CNS, 11.4 µM; in the test on SK-MEL-28 melanoma, 28.4 µM.
Turning to `COC(=O)C(COC(=O)/C=C/c1ccc(OC(C)=O)c(OC(C)=O)c1)OC(=O)/C=C/c1ccc(OC(C)=O)c(OC(C)=O)c1` (stereo not given), the TGI was found to be 43.1 µM in the test on CAKI-1 renal; 36.9 µM in the test on EKVX NSCLC; 47.6 µM in the test with HOP-92 NSCLC; 23.9 µM with IGROV1 ovarian; 45.6 µM with MALME-3M melanoma; 35.6 µM in the test with MDA-MB-231 breast. The results for the TGI with NCI-H460 lung, in the test with SF-539 CNS and in the test on SK-MEL-28 melanoma were 57.2 µM, 24.2 µM and 30.9 µM, respectively.
For `CC[N+](CC)=c1ccc2nc3c(cc(N)c4ccccc43)oc-2c1`, the GI50 in the test with HOP-92 NSCLC was 0.19 µM; in the test with MDA-MB-231 breast, 0.363 µM; in the test on SF-539 CNS, 0.174 µM; in the test on SNB-75 CNS, 0.61 µM. In addition, the TGI in the test with HOP-92 NSCLC was 0.497 µM; in the test on MDA-MB-231 breast, 1.73 µM; in the test with SF-539 CNS, 0.32 µM; with SNB-75 CNS it was 1.88 µM.
Consider `OCCN=C1Nc2ccc(Cl)cc2C(=S)N2CSC[C@@H]12`, for which the TGI in the test with CAKI-1 renal, in the test with HOP-92 NSCLC, in the test with MALME-3M melanoma, with MDA-MB-231 breast, with NCI-H460 lung and with SF-539 CNS was above 100 µM each time. The compound also displayed a TGI in the test with SK-MEL-28 melanoma above 100 µM.
As for `CCOC(=O)c1sc2c(c1OC(=O)c1ccccc1)c(=O)n(-c1ccccc1)c(=S)n2-c1ccccc1`, the TGI in the test on CAKI-1 renal is above 100 µM; with EKVX NSCLC it was above 100 µM; in the test on HOP-92 NSCLC it was 79.2 µM; in the test on IGROV1 ovarian it was 43.3 µM; in the test on MALME-3M melanoma, 54.5 µM; in the test with MDA-MB-231 breast, 87.2 µM. Further, the TGI in the test with NCI-H460 lung is 41.5 µM; with SF-539 CNS, 47.7 µM; with SK-MEL-28 melanoma, above 100 µM.
As for `NC(=O)COc1ccccc1`, the TGI in the test on CAKI-1 renal, with EKVX NSCLC, in the test on HOP-92 NSCLC, in the test on IGROV1 ovarian, in the test with MALME-3M melanoma and in the test on NCI-H460 lung was above 100 µM throughout. Besides, the TGI in the test on SF-539 CNS, in the test with SK-MEL-28 melanoma and in the test on SNB-75 CNS was above 100 µM throughout.
